Measured values from article PMC10568017, “A quest for the stereo-electronic requirements for selective agonism for the neurotrophin receptors TrkA and TrkB in 17-spirocyclic-dehydroepiandrosterone derivatives” (Frontiers in Molecular Neuroscience, 2023).
“Also recorded” adds a separate entry of the source.

How the values were obtained:
[1] = tested on: NIH-3T3 TrkB-expressing cell line; experiment: CellTox Green cytotoxicity assay in NIH-3T3 cells stable transfected with TrkB under serum deprivation; assay type: cell-based; details: compound 1 μM, 24 h, after 24 h serum starvation; BDNF 500 ng/mL as control
Experimental: We tested compounds on three cellular systems, primary cortical astrocytes from 2-day-old mice (as a natively TrkB-expressing neuronal population), and NIH-3T3 fibroblasts stable transfected with TrkB and NIH-3T3 naïve cells. Cells were grown with high-glucose DMEM medium supplemented with 10% fetal bovine serum (FBS), 100 μg/mL streptomycin, and 100 units/mL penicillin at 37°C in a humidified 5% CO2 atmosphere. Phosphorylation results presented here are in primary astrocytes, and cell toxicity assay results are in NIH-3T3 stable transfected cells with TrkB.
NIH-3T3 stable transfected cells with TrkB were plated in 96-well plates at a density of 10,000 cells/well, before carrying out serum starvation for 24 h. Cells were then treated for 24 h with either BDNF at 500 ng/mL (control) or the compounds at 1 μM.
For the cell toxicity assay, we used CellTox™ Green Dye (2,000 × , Promega) for the visualization of dead cells and Hoechst 33,342 solution (10,000 × ) for total cells. A ZEISS Axio Vert.A1 microscope was used for image capture, and the ImageJ software (https://imagej.nih.gov/ij/) was used for analysis. The number of CellTox positive cells was normalized against the total number of cells observed in each image.
The NIH-3T3 TrkB cell line, which is stable and transfected to specifically express the TrkB receptor, was used for the screening of the new compounds for their ability to protect cells from serum deprivation-induced apoptosis through the activation of the TrkB receptor. Cell death was induced by serum deprivation for 24 h and then BDNF (500 ng/mL), the native neurotrophin ligand of the TrkB receptor, or compounds ENT-A007, ENT-A009, ENTA025, ENT-A026, ENT-A033, ENT-A034, ENT-A035, ENT-A036, ENT-A037, ENT-A046, ENT-A047, ENT-A055, and ENT-A056 (1 μM) were added to the media for 24 h.

[2] = tested on: PC12 cells; experiment: CellTox assay, survival of PC12 cells under serum deprivation; assay type: cell-based; details: for protection of PC12 cells from serum deprivation-induced cell death (CellTox): compound 500 nM, 24 h, after 4 h serum starvation, NGF 100 ng/mL as control (Figure 9); for protection of PC12 cells from serum deprivation-induced death (CellTox): compound 1 μM, NGF 100 ng/mL as control (Figure 10)
Experimental: PC12 cells were obtained from LGC Promochem and cultured under specified conditions. Cells were grown in DMEM medium (Thermo Fischer Scientific, cat# 10566016) containing 10% horse serum (Thermo Fischer Scientific, cat# 16050122), 5% fetal bovine serum (Thermo Fischer Scientific, cat# 10270106), 100 units/mL penicillin, and 0.1 mg/mL streptomycin (Thermo Fischer Scientific, cat# 15140122) at 5% CO2 and 37°C. Cells were used between passages 5 and 20.
CellTox assay (G8742, Promega, Leiden, Belgium) was used to assess the survival of PC12 cells under serum deprivation conditions. PC12 cells were plated in 96-well plates, starved from serum for 4 h, and subsequently treated with NGF (100 ng/mL) or compound (500 nM) for 24 h. CellTox assay reagents and Hoescht (1:10,000, H3570, Invitrogen, Massachusetts, USA) were then added to each well for 30 min, and then, cells were imaged with a Zeiss AXIO Vert A1 fluorescent microscope. CellTox positive cells were normalized to the total number of cells for each image.
Initially, we tested compounds ENT-A002, ENT-A007, ENT-A009, ENTA025, ENT-A026, ENT-A033, ENT-A034, ENT-A035, ENT-A036, ENT-A037, ENT-A046, ENT-A047, ENT-A055, and ENT-A056 for their ability to protect PC12 cells from serum deprivation-induced cell death as well as for their ability to activate TrkA downstream pro-survival signaling kinases Akt and Erk1/2 (Figures 9A–C). We opted to employ PC12 cells, which express receptors TrkA and p75 and have been routinely used for investigating NGF-TrkA signaling. PC12 cells were subjected to a period of nutrient deprivation (without fetal bovine serum and horse serum in their culture medium) for 4 h. Following this, NGF (100 ng/mL) or one of the compounds (500 nM or 1 μM) was administered and allowed to interact with the cells for 24 h. Following that, CellTox and Hoescht dyes were added and cells were imaged to assess cell death. Control cases involved cells cultured in full medium (serum), cells under starvation conditions (serum-free), and cells under starvation conditions treated with DMSO (SF+DMSO).

[3] = Metabolic stability in pooled human liver microsomes; assay type: in vitro ADME; details: 1 μM; for residual of time zero: pooled human liver microsomes 0.5 mg/mL, t = 60 min, NADPH; for parent structure loss (depletion) class: pooled human liver microsomes, 60 min
Experimental: For metabolic stability assessment, pooled human liver microsomes were employed at 0.5 mg/mL. Incubation conditions were optimized to ensure linear metabolite formation with respect to protein concentration and reaction time. All test compounds were assessed at 1 μM based on our ADMET standard operating procedures and protocols, also published previously (1 μM was selected based on our ADMET standard operating procedures and protocols also published previously) (Rogdakis et al., [2022]; Yilmaz et al., [2022]). Approximately 1 mM of NADPH served as a cofactor. Reactions took place in triplicates at 37°C. Negative and positive controls (low vs. rapid clearance) were included for low vs. rapid clearance. After 60 min, reactions were terminated.
Parent structure loss is classified as very slow (<5%), slow (5–19%), moderate (20–50%), fast (50–80%), or very fast (>80%). Such categories have been defined according to set criteria, namely, high metabolism (t1/2 value of <30 min), moderate metabolism (30 min <t1/2 value of <60 min), and low metabolism (t1/2 value of >60 min) (EMA, [2012], [2013]; FDA, [2020]).

SMILES	protection of NIH-3T3-TrkB cells from serum deprivation-induced cell death (CellTox) [1]	protection of PC12 cells from serum deprivation-induced cell death (CellTox) [2]	protection of PC12 cells from serum deprivation-induced death (CellTox) [2]	also measured
C[C@]12CC[C@H](O)CC1=CC[C@@H]1[C@@H]2CC[C@@]2(C)[C@H]1CC[C@@]21CC=CCO1 [ENT-A002, (3S,17R)-3′,6′-dihydrospiro[5-androstene-17,2′-pyran]-3-ol]	did not show any protective effects	did not show any protective effects		
C[C@]12CC[C@H](O)CC1=CC[C@@H]1[C@@H]2CC[C@@]2(C)[C@H]1CC[C@@]21CC=C(CO)CO1 [ENT-A008]	none of these compounds provided any protective effects	none of these compounds provided any protective effects		
COC(=O)CSCC1=CCC2(CCC3C4CC=C5CC(O)CCC5(C)C4CCC32C)OC1 [ENT-A026, Methyl (3S,17R)-3-hydroxy-3’,6’-dihydrospiro[5-androstene-17,2’-pyran]-5’-yl-methylthio acetate]	none of these compounds provided any protective effects	none of these compounds provided any protective effects		
CC12CCC(O)CC1=CCC1C2CCC2(C)C1CCC21CC=C(CC#N)CO1 [ENT-A033, (3S,17R)-3-hydroxy-3′,6′-dihydrospiro[5-androstene-17,2′-pyran]-5′-yl-acetonitrile]	none of these compounds provided any protective effects	none of these compounds provided any protective effects		
C[C@]12CC[C@H](O)CC1=CC[C@@H]1[C@@H]2CC[C@@]2(C)[C@H]1CC[C@@]21CC=C(CF)CO1 [ENT-A034]	none of these compounds provided any protective effects	none of these compounds provided any protective effects		
COc1ccc(COCC2=CC[C@@]3(CC[C@H]4[C@@H]5CC=C6C[C@@H](O)CC[C@]6(C)[C@H]5CC[C@@]43C)OC2)cc1 [ENT-A035]	none of these compounds provided any protective effects	none of these compounds provided any protective effects		
C[C@]12CC[C@H](O)CC1=CC[C@@H]1[C@@H]2CC[C@@]2(C)[C@H]1CC[C@@]21CC=C(Cn2cc(CO)nn2)CO1 [ENT-A037, (3S,17R)-5′-[(4-(hydroxymethyl)-1H-1,2,3-triazol-1-yl)methyl]-3′,6′-dihydrospiro[5-androstene-17,2′-pyran]-3-ol]				melting point: 202 to 204 °C
C[C@]12CC[C@H](O)CC1=CC[C@@H]1[C@@H]2CC[C@@]2(C)[C@H]1CC[C@@]21CC=C(Cn2cc(CC3CCCCC3)nn2)CO1 [ENT-A047, (3S,17R)-5′-[(4-(cyclohexylmethyl)-1H-1,2,3-triazol-1-yl)methyl]-3′,6′-dihydrospiro[5-androstene-17,2′-pyran]-3-ol]				melting point: 181 °C (dec.)
CC12CCC(O)CC1=CCC1C2CCC2(C)C1CCC21CC=C(C=C2CCC2)CO1 [ENT-A065, (3S,17R)-5′-(cyclobutylidenemethyl)-3′,6′-dihydrospiro[5-androstene-17,2′-pyran]-3-ol]			promote cell survival as well as NGF does under stress conditions	
CC12CCC(O)CC1=CCC1C2CCC2(C)C1CCC21CC=C(C=CBr)CO1 [ENT-A066, (3S,17R)-5′-(2-bromovinyl)-3′,6′-dihydrospiro[5-androstene-17,2′-pyran]-3-ol]			found to promote PC12 cell survival during stress conditions; also recorded: promote cell survival as well as NGF does under stress conditions	residual of time zero [3]: > 95%; parent structure loss (depletion) class [3]: very slow (very slow (<5%))
CC=CC1=CCC2(CCC3C4CC=C5CC(O)CCC5(C)C4CCC32C)OC1 [ENT-A068, (E, Z) (3S,17R)-5′-(prop-1-en-1-yl)-3′,6′-dihydrospiro[5-androstene-17,2′-pyran]-3-ol]			found to promote PC12 cell survival during stress conditions; also recorded: promote cell survival as well as NGF does under stress conditions	
CCC1CCC2(CCC3C4CC=C5CC(O)CCC5(C)C4CCC32C)OC1 [ENT-A069, (3S,17R)-5′-(ethyl)-3′,6′-tetrahydrospiro[5-androstene-17,2′-pyran]-3-ol]			found to promote PC12 cell survival during stress conditions; also recorded: promote cell survival as well as NGF does under stress conditions	residual of time zero [3]: 95%; parent structure loss (depletion) class [3]: slow (slow (5–19%))
CCC1=CCC2(CCC3C4CC=C5CC(O)CCC5(C)C4CCC32C)OC1 [ENT-A070, (3S,17R)-5′-ethyl-3′,6′-dihydrospiro[5-androstene-17,2′-pyran]-3-ol]			found to promote PC12 cell survival during stress conditions; also recorded: promote cell survival as well as NGF does under stress conditions	residual of time zero [3]: > 95%; parent structure loss (depletion) class [3]: very slow (very slow (<5%))
C[C@]12CC[C@H](O)CC1=CC[C@@H]1[C@@H]2CC[C@@]2(C)[C@H]1CCC21CC(=CC#N)C1 (stereo partly drawn) [ENT-A077]				melting point: 161 to 163 °C
C[C@]12CC[C@H](O)CC1=CC[C@@H]1[C@@H]2CC[C@@]2(C)[C@H]1CCC21CC(=CC(=O)O)C1 (stereo partly drawn) [ENT-A080]				melting point: 221 °C (dec.)
